18 molecules from patent publication US20210122739A1, “NOVEL SULFONAMIDE CARBOXAMIDE COMPOUNDS” (Inflazome Limited, priority 2017, published 2021) can be followed below.

The target of assay [1] is T1, NLRP3 (Homo sapiens, UniProt Q96P20). Put plainly: THP-1 cells pyroptosis assay. Conditions: 1.0 μg/ml LPS, nigericin 5 μM, resazurin readout. It is filed as cell-based. The arrangement: Seed THP-1 cells (25,000 cells/well) containing 1.0 μg/ml LPS; host or cells: THP-1 cells, LPS-primed, nigericin-stimulated. The text has this: It is well established that the activation of NLRP3 leads to cell pyroptosis and this feature plays an important part in the manifestation of clinical disease (Yan-gang Liu et al., Cell Death & Disease, 2017, 8(2), e2579; Alexander Wree et al., Hepatology, 2014, 59(3), 898-910; Alex Baldwin et al., Journal of Medicinal Chemistry, 2016, 59(5), 1691-1710; Ema Ozaki et al., Journal of Inflammation Research, 2015, 8, 15-27; Zhen Xie & Gang Zhao, Neuroimmunology Neuroinflammation, 2014, 1(2), 60-65; Mattia Cocco et al., Journal of Medicinal Chemistry, 2014, 57(24), 10366-10382; T. Satoh et al., Cell Death & Disease, 2013, 4, e644). Therefore, it is anticipated that inhibitors of NLRP3 will block pyroptosis, as well as the release of pro-inflammatory cytokines (e.g. IL-1β) from the cell.
THP-1 cells (ATCC #TIB-202) were grown in RPMI containing L-glutamine (Gibco #11835) supplemented with 1 mM sodium pyruvate (Sigma #S8636) and penicillin (100 units/ml)/streptomycin (0.1 mg/ml) (Sigma #P4333) in 10% Fetal Bovine Serum (FBS) (Sigma #F0804). The cells were routinely passaged and grown to confluency (˜10^6 cells/ml). On the day of the experiment, THP-1 cells were harvested and resuspended into RPMI medium (without FBS). The cells were then counted and viability (>90%) checked by Trypan blue (Sigma #T8154). Appropriate dilutions were made to give a concentration of 625,000 cells/ml. To this diluted cell solution was added LPS (Sigma #L4524) to give a 1 μg/ml Final Assay Concentration (FAC). 40 μl of the final preparation was aliquoted into each well of a 96-well plate. The plate thus prepared was used for compound screening.
The following method step-by-step assay was followed for compound screening. • 1. Seed THP-1 cells (25,000 cells/well) containing 1.0 μg/ml LPS in 40 μl of RPMI medium (without FBS) in 96-well, black walled, clear bottom cell culture plates coated with poly-D-lysine (VWR #734-0317) • 2. Add […] compound (8 points half-log dilution, with 10 μM top dose) or vehicle (DMSO 0.1% FAC) to the appropriate wells • 3. Incubate for 3 hrs at 37° C. in 5% CO2 • 4. Add 5 μl nigericin (Sigma #N7143) (FAC 5 μM) to all wells • 5. Incubate for 1 hr at 37° C. and 5% CO2 • 6. At the end of the incubation period, spin plates at 300×g for 3 mins and remove supernatant • 7. Then add 50 μl of resazurin (Sigma #R7017) (FAC 100 μM resazurin in RPMI medium without FBS) and incubate plates for a further 1-2 hrs at 37° C. and 5% CO2 • 8. Plates were read in an Envision reader at Ex 560 nm and Em 590 nm • 9. IC50 data is fitted to a non-linear regression equation (log inhibitor vs response-variable slope 4-parameters)
In general terms: Resazurin is reduced to fluorescent resorufin, in cell work by metabolically active cells.

In assay [2] the target is T1, NLRP3. Put plainly: Human whole blood IL1β release assay. The format is cell-based. Further details: Plate out 80 μl of whole blood containing 1 μg/ml of LPS; from tissue; host or cells: human whole blood from healthy donors, LPS-primed, nigericin-stimulated. Conditions: 1 μg/ml LPS, nigericin 10 μM, IL-1β by AlphaLisa, read-out: HWB IC50. As to the method: For systemic delivery, the ability to inhibit NLRP3 when the compounds are present within the bloodstream is of great importance. For this reason, the NLRP3 inhibitory activity of a number of compounds in human whole blood was investigated in accordance with the following protocol.
Human whole blood in Li-heparin tubes was obtained from healthy donors from a volunteer donor panel. • 1. Plate out 80 μl of whole blood containing 1 μg/ml of LPS in 96-well, clear bottom cell culture plate (Corning #3585) • 2. Add 10 μl compound (8 points half-log dilution with 10 μM top dose) or vehicle (DMSO 0.1% FAC) to the appropriate wells • 3. Incubate for 3 hrs at 37° C., 5% CO2 • 4. Add 10 μl Nigericin (Sigma #N7143) (10 μM FAC) to all wells • 5. Incubate for 1 hr at 37° C., 5% CO2 • 6. At the end of the incubation period, spin plates at 300×g for 5 mins to pellet cells and remove 20 μl of supernatant and add to 96-well v-bottom plates for IL-1β analysis (note: these plates containing the supernatants can be stored at −80° C. to be analysed at a later date) • 7. IL-1β was measured according to the manufacturer protocol (Perkin Elmer-AlphaLisa IL-1 Kit AL220F-5000) • 8. IC50 data is fitted to anon-linear regression equation (log inhibitor vs response-variable slope 4-parameters)
In general terms: Alpha assays give light when donor and acceptor beads are brought close together.

Where only a bound is given, the exact number is not on record here.

As a reminder, the IC50 is the concentration that gives 50% inhibition.

T1 sequence (Q96P20 whole entry): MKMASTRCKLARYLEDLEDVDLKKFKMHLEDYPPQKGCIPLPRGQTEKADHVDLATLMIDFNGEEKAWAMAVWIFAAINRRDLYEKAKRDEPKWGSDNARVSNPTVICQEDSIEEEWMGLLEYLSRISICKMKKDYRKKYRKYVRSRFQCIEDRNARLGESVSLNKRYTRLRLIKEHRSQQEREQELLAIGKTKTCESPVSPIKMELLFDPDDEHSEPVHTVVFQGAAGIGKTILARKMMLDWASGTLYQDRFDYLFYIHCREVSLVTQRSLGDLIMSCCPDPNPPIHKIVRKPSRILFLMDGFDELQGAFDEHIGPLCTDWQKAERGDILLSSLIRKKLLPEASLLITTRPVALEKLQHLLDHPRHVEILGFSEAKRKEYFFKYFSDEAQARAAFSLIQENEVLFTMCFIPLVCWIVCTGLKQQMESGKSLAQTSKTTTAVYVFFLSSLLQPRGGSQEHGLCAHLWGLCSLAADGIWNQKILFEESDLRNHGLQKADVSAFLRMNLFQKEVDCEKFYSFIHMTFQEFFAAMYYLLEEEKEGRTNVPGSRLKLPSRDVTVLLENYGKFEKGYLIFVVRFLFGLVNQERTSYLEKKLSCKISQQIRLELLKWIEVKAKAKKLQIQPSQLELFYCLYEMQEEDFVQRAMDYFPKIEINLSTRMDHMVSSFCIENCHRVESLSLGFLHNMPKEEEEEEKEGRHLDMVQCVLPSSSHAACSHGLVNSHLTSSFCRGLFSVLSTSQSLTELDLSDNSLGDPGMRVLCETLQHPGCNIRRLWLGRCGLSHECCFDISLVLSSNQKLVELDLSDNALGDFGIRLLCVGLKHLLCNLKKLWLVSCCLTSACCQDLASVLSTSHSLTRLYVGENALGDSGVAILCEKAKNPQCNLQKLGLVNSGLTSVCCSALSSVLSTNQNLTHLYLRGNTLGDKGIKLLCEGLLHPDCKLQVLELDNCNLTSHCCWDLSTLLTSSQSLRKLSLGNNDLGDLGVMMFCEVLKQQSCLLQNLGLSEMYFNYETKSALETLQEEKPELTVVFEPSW

As for `CN(C)C(=O)Cn1ccc(S(=O)(=O)NC(=O)Nc2c3c(cc4c2CCC4)CCC3)n1` [Example 1, 2-(3-(N-((1,2,3,5,6,7-Hexahydro-s-indacen-4-yl)carbamoyl)sulfamoyl)-1H-pyrazol-1-yl)-N,N-dimethylacetamide], the IC50 was 0.16 to 0.64 µM against NLRP3 [1] and 3.2 to 10 µM at NLRP3 [2].

Turning to `CNC(=O)Cn1ccc(S(=O)(=O)NC(=O)Nc2c3c(cc4c2CCC4)CCC3)n1` [Example 2, 2-(3-(N-((1,2,3,5,6,7-Hexahydro-s-indacen-4-yl)carbamoyl)sulfamoyl)-1H-pyrazol-1-yl)-N-methylacetamide], the concentration for half-maximal inhibition (IC50) at NLRP3 [1] lay within 0.16 to 0.64 µM; at NLRP3 [2], 1.6 to 3.2 µM.

For the molecule `CN(C(=O)c1cc(S(=O)(=O)NC(=O)Nc2c3c(cc4c2CCC4)CCC3)nn1C)C1CCC1` [Example 7, N-Cyclobutyl-3-(N-((1,2,3,5,6,7-hexahydro-s-indacen-4-yl)carbamoyl)sulfamoyl)-N,1-dimethyl-1H-pyrazole-5-carboxamide], the IC50 against NLRP3 [1] lay in the range of 0.16 to 0.64 µM; at NLRP3 [2] it was 3.2 to 10 µM.

As for `Cn1nc(S(=O)(=O)NC(=O)Nc2c3c(cc4c2CCC4)CCC3)cc1C(=O)N(CCO)CCO` [Example 15, 3-(N-((1,2,3,5,6,7-Hexahydro-s-indacen-4-yl)carbamoyl)sulfamoyl)-N,N-bis(2-hydroxyethyl)-1-methyl-1H-pyrazole-5-carboxamide], the values for the IC50 against NLRP3 [1] and at NLRP3 [2] were 0.16 to 0.64 µM and less than 0.4 µM, respectively.

Take `CN(CCCO)C(=O)c1cc(S(=O)(=O)NC(=O)Nc2c3c(cc4c2CCC4)CCC3)nn1C` [Example 18, 3-(N-((1,2,3,5,6,7-Hexahydro-s-indacen-4-yl)carbamoyl)sulfamoyl)-N-(3-hydroxypropyl)-N,1-dimethyl-1H-pyrazole-5-carboxamide]: the concentration for half-maximal inhibition (IC50) against NLRP3 [1] lay within 0.16 to 0.64 µM; on NLRP3 [2], 1.6 to 3.2 µM.

With `CCN(CCO)C(=O)c1cc(S(=O)(=O)NC(=O)Nc2c3c(cc4c2CCC4)CCC3)nn1C` [Example 20, N-Ethyl-3-(N-((1,2,3,5,6,7-hexahydro-s-indacen-4-yl)carbamoyl)sulfamoyl)-N-(2-hydroxyethyl)-1-methyl-1H-pyrazole-5-carboxamide], the IC50 lay in the range of 0.16 to 0.64 µM at NLRP3 [1] and 0.8 to 1.6 µM at NLRP3 [2].

For the molecule `COCCN(CCOC)C(=O)c1cc(S(=O)(=O)NC(=O)Nc2c3c(cc4c2CCC4)CCC3)nn1C` [Example 26, 3-(N-((1,2,3,5,6,7-Hexahydro-s-indacen-4-yl)carbamoyl)sulfamoyl)-N,N-bis(2-methoxyethyl)-1-methyl-1H-pyrazole-5-carboxamide], the 50% inhibitory concentration (IC50) against NLRP3 [1] lay in the range of 0.04 to 0.16 µM; on NLRP3 [2] it was 0.4 to 0.8 µM.

On to `CC(=O)N(C)Cc1cc(S(=O)(=O)NC(=O)Nc2c3c(cc4c2CCC4)CCC3)nn1C(C)C` [Example 29, N-((3-(N-((1,2,3,5,6,7-Hexahydro-s-indacen-4-yl)carbamoyl)sulfamoyl)-1-isopropyl-1H-pyrazol-5-yl)methyl)-N-methylacetamide], for which the IC50 against NLRP3 [1] was in the range of 0.04 to 0.16 µM; at NLRP3 [2], 0.4 to 0.8 µM.

As for `CNC(=O)c1cc(S(=O)(=O)NC(=O)Nc2c(C(C)C)cc(Cl)cc2C(C)C)nn1C` [Example 32, 3-(N-((4-Chloro-2,6-diisopropylphenyl)carbamoyl)sulfamoyl)-N,1-dimethyl-1H-pyrazole-5-carboxamide], the IC50 against NLRP3 [1] was 0.16 to 0.64 µM; at NLRP3 [2], 1.6 to 3.2 µM.

Take `CC(C)c1cc(F)cc(C2CCOCC2)c1NC(=O)NS(=O)(=O)c1cc(C(=O)N(C)C)n(C)n1` [Example 33, 3-(N-((4-Fluoro-2-isopropyl-6-(tetrahydro-2H-pyran-4-yl)phenyl)carbamoyl)sulfamoyl)-N,N,1-trimethyl-1H-pyrazole-5-carboxamide]: at NLRP3 [2], the IC50 is 0.4 to 0.8 µM.

Consider `CC(C)c1cc(F)cc(-c2cnn(C)c2)c1NC(=O)NS(=O)(=O)c1cc(C(=O)N(C)C)n(C)n1` [Example 35, 3-(N-((4-Fluoro-2-isopropyl-6-(1-methyl-H-pyrazol-4-yl)phenyl)carbamoyl)sulfamoyl)-N,N,1-trimethyl-1H-pyrazole-5-carboxamide], for which the half-maximal inhibitory concentration (IC50) against NLRP3 [1] is 0.64 to 2.56 µM; on NLRP3 [2], less than 0.4 µM.

Consider `CC(C)c1cccc(C(C)C)c1NC(=O)NS(=O)(=O)c1cc(C(=O)N2CC(F)C2)n(C)n1` [Example 39, N-((2,6-Diisopropylphenyl)carbamoyl)-5-(3-fluoroazetidine-1-carbonyl)-1-methyl-1H-pyrazole-3-sulfonamide], for which the IC50 is 0.64 to 2.56 µM against NLRP3 [1] and 0.8 to 1.6 µM at NLRP3 [2].

As for `CC(C)c1cc(F)cc(-c2cccnc2)c1NC(=O)NS(=O)(=O)c1cc(C(=O)N(C)C)n(C)n1` [Example 41, 3-(N-((4-Fluoro-2-isopropyl-6-(pyridin-3-yl)phenyl)carbamoyl)sulfamoyl)-N,N,1-trimethyl-1H-pyrazole-5-carboxamide], at NLRP3 [2], the IC50 was less than 0.4 µM.

As to `CC(C)c1cc(F)cc(-c2cncnc2)c1NC(=O)NS(=O)(=O)c1cc(C(=O)N(C)C)n(C)n1` [Example 42, 3-(N-((4-Fluoro-2-isopropyl-6-(pyrimidin-5-yl)phenyl)carbamoyl)sulfamoyl)-N,N,1-trimethyl-1H-pyrazole-5-carboxamide], the results for the 50% inhibitory concentration (IC50) against NLRP3 [1] and on NLRP3 [2] were 0.16 to 0.64 µM and less than 0.4 µM, respectively.

In the case of `CC(C)c1cccc(C(C)C)c1NC(=O)NS(=O)(=O)c1cc(C(=O)N(C)C2CC2)n(C)n1` [Example 43, N-Cyclopropyl-3-(N-((2,6-diisopropylphenyl)carbamoyl)sulfamoyl)-N,1-dimethyl-1H-pyrazole-5-carboxamide], the values for the IC50 on NLRP3 [1] and on NLRP3 [2] were 0.04 to 0.16 µM and 0.8 to 1.6 µM, respectively.

For `CC(C)c1ccc(C(C)C)c(NC(=O)NS(=O)(=O)c2cc(C(=O)N(C)C)n(C)n2)c1` [Example 44, 3-(N-((2,5-Diisopropylphenyl)carbamoyl)sulfamoyl)-N,N,1-trimethyl-1H-pyrazole-5-carboxamide], the results for the half-maximal inhibitory concentration (IC50) against NLRP3 [1] and on NLRP3 [2] were 0.16 to 0.64 µM and 3.2 to 10 µM, respectively.

With `CC(C)c1cc(F)cc(C(C)C)c1NC(=O)NS(=O)(=O)c1cc(C(=O)N(C)C(C)C)n(C)n1` [Example 47, 3-(N-((4-Fluoro-2,6-diisopropylphenyl)carbamoyl)sulfamoyl)-N-isopropyl-N,1-dimethyl-1H-pyrazole-5-carboxamide], the IC50 at NLRP3 [1] lay within 0.04 to 0.16 µM; on NLRP3 [2] it was 0.4 to 0.8 µM.

Consider `CCN(C)C(=O)c1cc(S(=O)(=O)NC(=O)Nc2c(C(C)C)cc(F)cc2C(C)C)nn1C` [Example 49, N-Ethyl-3-(N-((4-fluoro-2,6-diisopropylphenyl)carbamoyl)sulfamoyl)-N,1-dimethyl-1H-pyrazole-5-carboxamide], for which the IC50 was in the range of 0.16 to 0.64 µM at NLRP3 [1] and 0.4 to 0.8 µM at NLRP3 [2].
